Experimental data from PubChem BioAssay AID248 (DTP/NCI, 2004).
Toxic doses and inconclusive results are not listed. Cut-off read from the data, not from the text of the source: active = T/C of 150% or more; inactive = T/C below 125%.

Test system: L1210 leukemia ip in BDF1 mice, survival T/C
Assay: NCI In Vivo Anticancer Drug Screen. Data for tumor model L1210 Leukemia (intraperitoneal) in B6D2F1 (BDF1) mice
Settings: endpoint: mean survival time, higher = longer survival
Procedure, shortened: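 In this screen, tumor-bearing mice given compound are compared to those given vehicle, and their survival values are reported as a treated-to-control quotient.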

[1] = dose: 50.0 mg/kg/injection, schedule: Q01DX001 (ip), vehicle: saline
[2] = dose: 100.0 mg/kg/injection, schedule: Q01DX001 (ip), vehicle: saline
[3] = dose: 200.0 mg/kg/injection, schedule: Q01DX001 (ip), vehicle: saline
[4] = dose: 100.0 mg/kg/injection, schedule: Q01DX009 (ip), vehicle: saline with Tween-80
[5] = dose: 200.0 mg/kg/injection, schedule: Q01DX009 (ip), vehicle: saline with Tween-80
[6] = dose: 100.0 mg/kg/injection, schedule: Q04DX002 (ip), vehicle: Klucel (hydroxypropylcellulose) (HPC)
[7] = dose: 200.0 mg/kg/injection, schedule: Q04DX002 (ip), vehicle: Klucel (hydroxypropylcellulose) (HPC)
[8] = dose: 400.0 mg/kg/injection, schedule: Q04DX002 (ip), vehicle: Klucel (hydroxypropylcellulose) (HPC)
[9] = dose: 100.0 mg/kg/injection, schedule: Q04DX003 (ip), vehicle: saline
[10] = dose: 200.0 mg/kg/injection, schedule: Q04DX003 (ip), vehicle: saline
[11] = dose: 400.0 mg/kg/injection, schedule: Q01DX009 (ip), vehicle: saline with Tween-80
[12] = dose: 400.0 mg/kg/injection, schedule: Q04DX003 (ip), vehicle: saline
[13] = dose: 100.0 mg/kg/injection, schedule: Q04DX003 (ip), vehicle: Klucel (hydroxypropylcellulose) (HPC)
[14] = dose: 100.0 mg/kg/injection, schedule: Q01DX009 (ip), vehicle: Klucel (hydroxypropylcellulose) (HPC)
[15] = dose: 200.0 mg/kg/injection, schedule: Q01DX009 (ip), vehicle: Klucel (hydroxypropylcellulose) (HPC)
[16] = dose: 200.0 mg/kg/injection, schedule: Q04DX003 (ip), vehicle: Klucel (hydroxypropylcellulose) (HPC)
[17] = dose: 400.0 mg/kg/injection, schedule: Q01DX009 (ip), vehicle: Klucel (hydroxypropylcellulose) (HPC)
[18] = dose: 400.0 mg/kg/injection, schedule: Q04DX003 (ip), vehicle: Klucel (hydroxypropylcellulose) (HPC)
[19] = dose: 100.0 mg/kg/injection, schedule: Q01DX001 (ip), vehicle: carboxymethylcellulose (CMC)
[20] = dose: 200.0 mg/kg/injection, schedule: Q01DX001 (ip), vehicle: carboxymethylcellulose (CMC)
[21] = dose: 400.0 mg/kg/injection, schedule: Q01DX001 (ip), vehicle: carboxymethylcellulose (CMC)
[22] = dose: 400.0 mg/kg/injection, schedule: Q01DX001 (ip), vehicle: saline
[23] = dose: 100.0 mg/kg/injection, schedule: Q01DX009 (ip), vehicle: saline
[24] = dose: 200.0 mg/kg/injection, schedule: Q01DX009 (ip), vehicle: saline
[25] = dose: 400.0 mg/kg/injection, schedule: Q01DX009 (ip), vehicle: saline

Measured: T/C

CCN(CCO)CCNc1ccc(C)c2sc3ccccc3c(=O)c12
inactive: dose: 26.0 mg/kg/injection, schedule: Q01DX009 (ip), vehicle: saline 110 % of control | dose: 40.0 mg/kg/injection, schedule: Q01DX009 (ip), vehicle: saline 122 % of control | [1] 105 % of control | dose: 60.0 mg/kg/injection, schedule: Q01DX009 (ip), vehicle: saline 124 % of control | dose: 78.0 mg/kg/injection, schedule: Q04DX003 (ip), vehicle: saline 111 % of control | [2] 116 % of control | dose: 114.0 mg/kg/injection, schedule: Q01DX001 (ip), vehicle: saline 104 % of control | dose: 114.0 mg/kg/injection, schedule: Q04DX003 (ip), vehicle: saline 120 % of control | dose: 135.0 mg/kg/injection, schedule: Q01DX009 (ip), vehicle: saline 95 % of control | dose: 174.0 mg/kg/injection, schedule: Q01DX001 (ip), vehicle: saline 110 % of control | [3] 121 % of control
active: dose: 174.0 mg/kg/injection, schedule: Q04DX003 (ip), vehicle: saline 172 % of control | dose: 260.0 mg/kg/injection, schedule: Q01DX001 (ip), vehicle: saline 165 % of control

CC(=O)OCC(OC(C)=O)C(OC(C)=O)C(/C=C/N=[N+]([O-])c1ccccc1)OC(C)=O (stereo not drawn)
inactive: [1] 100 % of control | [2] 94 % of control | [3] 100 % of control

O=Cc1cc2ccccc2cc1O
inactive: dose: 50.0 mg/kg/injection, schedule: Q01DX009 (ip), vehicle: saline with Tween-80 91 % of control | [4] 94 % of control | [5] 97 % of control

O=C(O)CCC(NC(=O)/C=C/c1ccc([N+](=O)[O-])cc1)C(=O)O (stereo not drawn)
inactive: [6] 107 % of control | [7] 88 % of control | [8] 91 % of control

Cn1cccc1/C=N/O
inactive: [6] 98 % of control | [7] 98 % of control | [8] 117 % of control

NC(N)=NCCCC(NC(=O)c1ccccc1)C(=O)Nc1ccc([N+](=O)[O-])cc1 (stereo not drawn)
inactive: [4] 89 % of control | [9] 104 % of control | [5] 95 % of control | [10] 100 % of control | [11] 110 % of control | [12] 98 % of control

O=C(O)c1ccccc1NC(=O)C(F)(F)F
inactive: dose: 25.0 mg/kg/injection, schedule: Q01DX009 (ip), vehicle: saline sonified 98 % of control | dose: 50.0 mg/kg/injection, schedule: Q01DX009 (ip), vehicle: saline sonified 96 % of control | dose: 100.0 mg/kg/injection, schedule: Q01DX009 (ip), vehicle: saline sonified 93 % of control | [13] 101 % of control

Cc1cccc(NS(=O)(=O)c2ccccc2)c1C
inactive: [14] 91 % of control | [13] 97 % of control | [15] 91 % of control | [16] 93 % of control | [17] 98 % of control | [18] 98 % of control

C[S+]1CCCCC1
inactive: [1] 96 % of control | [2] 100 % of control

O=c1[nH]c2ccsc2c(=O)n1O
inactive: [9] 102 % of control | [10] 97 % of control

COc1ccc(C(=O)OC(=O)c2ccc(OC)cc2)cc1
inactive: dose: 50.0 mg/kg/injection, schedule: Q01DX001 (ip), vehicle: carboxymethylcellulose (CMC) 110 % of control | [19] 104 % of control | [4] 113 % of control | dose: 100.0 mg/kg/injection, schedule: Q04DX003 (ip), vehicle: saline with Tween-80 102 % of control | [20] 108 % of control | [5] 116 % of control | dose: 200.0 mg/kg/injection, schedule: Q04DX003 (ip), vehicle: saline with Tween-80 102 % of control | [21] 112 % of control | [11] 110 % of control | dose: 400.0 mg/kg/injection, schedule: Q04DX003 (ip), vehicle: saline with Tween-80 101 % of control

COc1cc(O)c2ccccc2c1OC(C)=O
inactive: dose: 50.0 mg/kg/injection, schedule: Q01DX009 (ip), vehicle: Klucel (hydroxypropylcellulose) (HPC) 101 % of control | [14] 90 % of control | [15] 93 % of control

CC(=O)[C@H]1CC[C@H]2[C@@H]3CC[C@@H]4C[C@@H](O)CC[C@]4(C)[C@H]3CC[C@]12C
inactive: dose: 100.0 mg/kg/injection, schedule: Q04DX002 (ip), vehicle: saline with Tween-80 97 % of control | dose: 200.0 mg/kg/injection, schedule: Q04DX002 (ip), vehicle: saline with Tween-80 100 % of control | dose: 400.0 mg/kg/injection, schedule: Q04DX002 (ip), vehicle: saline with Tween-80 90 % of control

CC(=O)N(O)c1ccc(-c2cc3ccccc3[nH]2)cc1
inactive: [19] 101 % of control | [20] 93 % of control | [21] 93 % of control

CCC(C)c1cc([N+](=O)[O-])cc([N+](=O)[O-])c1SC(=O)N(C)C (stereo not drawn)
inactive: [14] 94 % of control | [15] 97 % of control | [17] 100 % of control

COC(=O)/C=C/c1cccnc1
inactive: dose: 50.0 mg/kg/injection, schedule: Q04DX003 (ip), vehicle: Klucel (hydroxypropylcellulose) (HPC) 103 % of control | [13] 93 % of control | [16] 103 % of control

OCC(O)C(O)C(O)CC(c1ccc(Cl)cc1)c1ccc(Cl)cc1 (stereo not drawn)
inactive: [1] 102 % of control | [2] 102 % of control | [3] 106 % of control | [22] 107 % of control

O=C1c2cc(Br)cc(Br)c2NCCCC1(Br)Br
inactive: [13] 94 % of control | [16] 97 % of control | [18] 94 % of control

COC(=O)c1csc(-c2csc(CCN)n2)n1
inactive: [2] 102 % of control | [23] 100 % of control | [9] 95 % of control | [3] 98 % of control | [24] 98 % of control | [10] 98 % of control | [22] 101 % of control | [25] 89 % of control | [12] 103 % of control

c1ccc(-c2cc(-c3ccccc3)[o+]c(-c3ccccc3)c2)cc1
inactive: [6] 93 % of control | [7] 96 % of control | [8] 90 % of control

CC1(C)CCc2cc(C(=O)O)ccc2O1
inactive: [1] 100 % of control | [2] 100 % of control | [3] 103 % of control | [22] 100 % of control

NCCCC(N)C(=O)NCCCCCCCCCCNC(=O)C(N)CCCN (stereo not drawn)
inactive: dose: 10.0 mg/kg/injection, schedule: Q01DX Z (ip), vehicle: saline 93 % of control | dose: 30.0 mg/kg/injection, schedule: Q01DX Z (ip), vehicle: saline 101 % of control

CC(=O)c1ccc(Oc2ccccc2)cc1
inactive: [6] 104 % of control | [7] 93 % of control | [8] 110 % of control

CCCCCOP(=O)(Cc1ccc(Cl)cc1)OCCCCC
inactive: [13] 87 % of control | [16] 90 % of control | [18] 100 % of control

Cn1c(=O)[nH]c(=O)c2[nH]c(CO)nc21
inactive: [19] 100 % of control | [20] 102 % of control

Cc1cnc(N(C)CC(=O)O)nc1-c1ccccc1O
inactive: [6] 96 % of control | [7] 89 % of control

O=C1COC(=O)N1
inactive: [23] 100 % of control | [24] 100 % of control | [25] 100 % of control
